Source: the SangsterLogP compilation

Test: method code SF-AS, from DOI: 10.1016/0048-3575(91)90045-n

Row | SMILES | logP
1 | O=C(NC(=O)c1c(F)cccc1F)Nc1cc(OC(F)(F)F)c(Br)cc1F | 3.24
2 | O=C(NC(=O)c1c(F)cccc1F)Nc1c(F)ccc(C(F)(F)F)c1Br | 2.22
3 | Cc1ccc(NC(=O)NC(=O)c2c(F)cccc2F)c(C)c1 | 1.46
4 | Cc1cc(NC(=O)NC(=O)c2c(F)cccc2F)cc(C)c1Br | 3.28
5 | O=C(NC(=O)c1c(F)cccc1F)Nc1ccc(Br)cc1 | 2.29
6 | O=C(NC(=O)c1c(F)cccc1F)Nc1ccccc1 | 1.16
7 | O=C(NC(=O)c1c(F)cccc1F)Nc1cc(C(F)(F)F)cc(Cl)c1Cl | 3.27
8 | CC(C)COc1cc(NC(=O)NC(=O)c2c(F)cccc2F)c(F)cc1Cl | 3.79
9 | O=C(NC(=O)c1c(F)cccc1F)Nc1ccc(Oc2ncc(C(F)(F)F)cc2Cl)c(Cl)c1Cl | 4.46
10 | O=C(NC(=O)c1c(F)cccc1F)Nc1cc(Cl)c(Cl)c(Cl)c1Cl | 2.9
11 | C=CCOc1cc(NC(=O)NC(=O)c2c(F)cccc2F)c(F)cc1Cl | 2.76
12 | CCCCc1ccc(NC(=O)NC(=O)c2c(F)cccc2F)cc1 | 3.3
13 | O=C(NC(=O)c1c(F)cccc1F)Nc1ccccc1F | 1.03
14 | CCCCc1ccc(NC(=O)NC(=O)c2c(F)cccc2F)c(C)c1 | 3.1
15 | O=C(NC(=O)c1c(F)cccc1F)Nc1cc(C(F)(F)F)cc(C(F)(F)F)c1Br | 3.51
16 | O=C(NC(=O)c1c(F)cccc1F)Nc1cccc(C(F)(F)F)c1 | 2.56
17 | O=C(NC(=O)c1c(F)cccc1F)Nc1cc(Br)cc(C(F)(F)F)c1Cl | 3.41
18 | O=C(NC(=O)c1c(F)cccc1F)Nc1ccccc1Br | 1.34
19 | CCc1cc(NC(=O)NC(=O)c2c(F)cccc2F)ccc1Br | 3.33
20 | O=C(NC(=O)c1c(F)cccc1F)Nc1ccc(Cl)cc1C(F)(F)F | 1.98
21 | O=C(NC(=O)c1c(F)cccc1F)Nc1cc(Cl)c(Cl)c(Cl)c1 | 3.76

Row | SMILES | logP
22 | O=C(NC(=O)c1c(F)cccc1F)Nc1cccc(Cl)c1F | 1.83
23 | O=C(NC(=O)c1c(F)cccc1F)Nc1ccc(Cl)cc1 | 2.12
24 | CCc1cc(Br)ccc1NC(=O)NC(=O)c1c(F)cccc1F | 2.27
25 | O=C(NC(=O)c1c(F)cccc1F)Nc1ccc(F)cc1 | 1.47
26 | Cc1c(Br)ccc(NC(=O)NC(=O)c2c(F)cccc2F)c1Cl | 2.73
27 | O=C(NC(=O)c1c(F)cccc1F)Nc1cc(C(F)(F)F)c(Cl)cc1F | 3.02
28 | O=C(NC(=O)c1c(F)cccc1F)Nc1ccc(I)cc1 | 2.46
29 | Cc1ccc(NC(=O)NC(=O)c2c(F)cccc2F)cc1Cl | 2.69
30 | O=C(NC(=O)c1c(F)cccc1F)Nc1cc(Cl)c(Oc2ncc(C(F)(F)F)cc2Cl)c(Cl)c1 | 5.54
31 | O=C(NC(=O)c1c(F)cccc1F)Nc1ccc(Cl)c(Cl)c1 | 3
32 | CC(C)Oc1cc(NC(=O)NC(=O)c2c(F)cccc2F)c(F)cc1Cl | 2.84
33 | Cc1cccc(NC(=O)NC(=O)c2c(F)cccc2F)c1C | 1.35
34 | O=C(NC(=O)c1c(F)cccc1F)Nc1cc(Cl)c(F)c(Cl)c1F | 2.9
35 | Cc1cc(NC(=O)NC(=O)c2c(F)cccc2F)ccc1Cl | 2.57
36 | Cc1ccc(C)c(NC(=O)NC(=O)c2c(F)cccc2F)c1 | 1.47
37 | Cc1ccc(NC(=O)NC(=O)c2c(F)cccc2F)cc1C | 2.1
38 | O=C(NC(=O)c1c(F)cccc1F)Nc1cc(OC(F)(F)F)c(F)cc1F | 2.48
39 | Cc1cc(NC(=O)NC(=O)c2c(F)cccc2F)ccc1Br | 2.8
40 | O=C(NC(=O)c1c(F)cccc1F)Nc1ccc(Br)c(Cl)c1F | 2.86
41 | O=C(NC(=O)c1c(F)cccc1F)Nc1ccccc1C(F)(F)F | 1.17
42 | O=C(NC(=O)c1c(F)cccc1F)Nc1cc(Cl)cc(C(F)(F)F)c1Cl | 3.27

Row | SMILES | logP
43 | CCCCc1ccc(NC(=O)NC(=O)c2c(F)cccc2F)c([N+](=O)[O-])c1 | 3.1
44 | O=C(NC(=O)c1c(F)cccc1F)Nc1ccc(Cl)c(C(F)(F)F)c1 | 3.33
45 | O=C(NC(=O)c1c(F)cccc1F)Nc1cc(C(F)(F)F)c(Br)c(C(F)(F)F)c1 | 4.56
46 | O=C(NC(=O)c1c(F)cccc1F)Nc1cc(Cl)cc(C(F)(F)F)c1Br | 3.26
47 | Cc1c(Cl)cccc1NC(=O)NC(=O)c1c(F)cccc1F | 1.82
48 | O=C(NC(=O)c1c(F)cccc1F)Nc1cccc(Cl)c1Cl | 2.09
49 | Cc1cc(C)cc(NC(=O)NC(=O)c2c(F)cccc2F)c1 | 2.17
50 | CCCCc1ccc(NC(=O)NC(=O)c2c(F)cccc2F)cc1C | 3.64
51 | Cc1c(NC(=O)NC(=O)c2c(F)cccc2F)ccc(Br)c1Cl | 2.69
52 | O=C(NC(=O)c1c(F)cccc1F)Nc1ccc(Cl)cc1Cl | 2.18
53 | O=C(NC(=O)c1c(F)cccc1F)Nc1ccc(Oc2ncc(C(F)(F)F)cc2Cl)c(Cl)c1 | 4.52
54 | O=C(NC(=O)c1c(F)cccc1F)Nc1cc(Cl)cc(Cl)c1Br | 3.04
55 | O=C(NC(=O)c1c(F)cccc1F)Nc1cc([N+](=O)[O-])c(Br)cc1F | 2.11
56 | O=C(NC(=O)c1c(F)cccc1F)Nc1ccc(Cl)cc1F | 1.91
57 | O=C(NC(=O)c1c(F)cccc1F)Nc1ccc(Cl)c(Cl)c1Cl | 2.88
58 | O=C(NC(=O)c1c(F)cccc1F)Nc1cc(Cl)cc(Cl)c1 | 3.17
59 | O=C(NC(=O)c1c(F)cccc1F)Nc1cc(C(F)(F)F)cc(C(F)(F)F)c1 | 3.72
60 | Cc1cc(Oc2ncc(C(F)(F)F)cc2Cl)ccc1NC(=O)NC(=O)c1c(F)cccc1F | 3.23
61 | O=C(NC(=O)c1c(F)cccc1F)Nc1cc(Cl)ccc1Cl | 2.19
62 | O=C(NC(=O)c1c(F)cccc1F)Nc1cc(C(F)(F)F)c(F)cc1F | 2.34
63 | CCCCc1ccc(NC(=O)NC(=O)c2c(F)cccc2F)c(Br)c1 | 3.39

Row | SMILES | logP
64 | Cc1cc(NC(=O)NC(=O)c2c(F)cccc2F)cc(C)c1C | 2.5
65 | O=C(NC(=O)c1c(F)cccc1F)Nc1cc(F)cc(C(F)(F)F)c1Cl | 2.86
66 | COc1cc(Br)ccc1NC(=O)NC(=O)c1c(F)cccc1F | 2.02
67 | Cc1cc(Oc2ncc(C(F)(F)F)cc2Cl)c(C)cc1NC(=O)NC(=O)c1c(F)cccc1F | 3.84
68 | O=C(NC(=O)c1c(F)cccc1F)Nc1c(F)cc(Br)c(C(F)(F)F)c1Br | 3.07
69 | O=C(NC(=O)c1c(F)cccc1F)Nc1cc(C(F)(F)F)c(Cl)cc1Cl | 3.24
70 | O=C(NC(=O)c1c(F)cccc1F)Nc1cc(C(F)(F)F)c(Br)cc1F | 3.17
71 | CSc1cc(Br)ccc1NC(=O)NC(=O)c1c(F)cccc1F | 2.18
72 | O=C(NC(=O)c1c(F)cccc1F)Nc1cc(C(F)(F)F)ccc1F | 2.24
73 | Cc1cc(Br)ccc1NC(=O)NC(=O)c1c(F)cccc1F | 2.03
74 | Cc1cc(Br)cc(C)c1NC(=O)NC(=O)c1c(F)cccc1F | 2.12
75 | CCc1ccc(NC(=O)NC(=O)c2c(F)cccc2F)cc1 | 2.2
76 | O=C(NC(=O)c1c(F)cccc1F)Nc1c(F)cc(Br)cc1F | 1.73
77 | O=C(NC(=O)c1c(F)cccc1F)Nc1ccc(Br)c(OC(F)(F)F)c1 | 3.48
78 | CCCCc1ccc(NC(=O)NC(=O)c2c(F)cccc2F)cc1Br | 4.23
79 | O=C(NC(=O)c1c(F)cccc1F)Nc1ccc(F)c(C(F)(F)F)c1 | 2.64
80 | C#CCOc1cc(NC(=O)NC(=O)c2c(F)cccc2F)c(F)cc1Cl | 2.2
81 | O=C(NC(=O)c1c(F)cccc1F)Nc1cc(Cl)cc(C(F)(F)F)c1F | 3.15
